According to ChEMBL document CHEMBL1201862, “PubChem BioAssay data set” (2004):
Calls of active or inactive are those of the source.

Experiments:
[1] = target: Small ubiquitin-related modifier 2 (Homo sapiens, UniProt P61956); assay: SUMO2–SIM peptide binding inhibitors, dose response, selectivity assay for SUMO1 interaction inhibitor project, biochemical, fluorescence polarization, uHTS hits (AID 624385); format: functional; conditions: read-out: IC50_Mean
[2] = target: T1, Histone-lysine N-methyltransferase NSD2 (Homo sapiens, UniProt O96028); format: biochemical
T1 sequence (O96028 whole entry): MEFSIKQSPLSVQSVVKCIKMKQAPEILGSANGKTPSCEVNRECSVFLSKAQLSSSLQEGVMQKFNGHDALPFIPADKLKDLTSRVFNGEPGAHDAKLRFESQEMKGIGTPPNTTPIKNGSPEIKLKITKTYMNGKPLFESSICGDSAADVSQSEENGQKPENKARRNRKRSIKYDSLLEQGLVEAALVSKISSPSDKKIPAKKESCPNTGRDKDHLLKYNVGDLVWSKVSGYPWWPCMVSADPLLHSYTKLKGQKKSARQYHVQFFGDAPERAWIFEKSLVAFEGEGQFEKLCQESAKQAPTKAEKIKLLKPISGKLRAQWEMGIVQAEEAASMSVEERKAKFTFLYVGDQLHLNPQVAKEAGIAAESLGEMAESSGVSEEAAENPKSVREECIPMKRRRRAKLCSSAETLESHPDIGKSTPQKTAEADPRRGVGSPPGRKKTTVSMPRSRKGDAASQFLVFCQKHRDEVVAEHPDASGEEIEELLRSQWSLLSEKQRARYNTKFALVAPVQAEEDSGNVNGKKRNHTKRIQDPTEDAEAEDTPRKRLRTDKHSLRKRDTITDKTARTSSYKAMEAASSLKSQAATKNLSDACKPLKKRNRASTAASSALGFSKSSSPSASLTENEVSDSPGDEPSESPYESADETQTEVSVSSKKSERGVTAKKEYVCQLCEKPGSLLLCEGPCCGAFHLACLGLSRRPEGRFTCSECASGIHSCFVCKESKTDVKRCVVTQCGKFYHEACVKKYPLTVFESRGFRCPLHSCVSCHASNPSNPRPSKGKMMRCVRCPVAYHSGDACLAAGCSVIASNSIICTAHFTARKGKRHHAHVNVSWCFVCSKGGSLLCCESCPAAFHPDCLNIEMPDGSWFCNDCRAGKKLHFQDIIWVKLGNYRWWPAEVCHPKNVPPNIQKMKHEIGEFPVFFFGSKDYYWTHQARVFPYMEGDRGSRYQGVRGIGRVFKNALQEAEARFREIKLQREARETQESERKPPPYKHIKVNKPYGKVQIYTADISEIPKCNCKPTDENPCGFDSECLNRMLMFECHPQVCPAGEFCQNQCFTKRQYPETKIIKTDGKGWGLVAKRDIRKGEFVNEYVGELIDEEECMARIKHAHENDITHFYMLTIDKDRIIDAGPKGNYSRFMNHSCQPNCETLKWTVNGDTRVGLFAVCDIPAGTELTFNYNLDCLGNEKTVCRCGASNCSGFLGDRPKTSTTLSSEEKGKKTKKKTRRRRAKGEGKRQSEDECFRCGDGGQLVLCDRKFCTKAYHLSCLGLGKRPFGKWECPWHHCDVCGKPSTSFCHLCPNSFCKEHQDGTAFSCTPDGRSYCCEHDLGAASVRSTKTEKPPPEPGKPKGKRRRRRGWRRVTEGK

[3] = target: ATP-dependent molecular chaperone HSP82 (Candida albicans (strain WO-1) (Yeast), UniProt C4YTQ8); assay: loss of DOC-induced GRE-beta-galactosidase reporter signal, dose response, Hsp90 inhibitor project, S. cerevisiae, luminescence (AID 2400); format: functional, cell-based;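 also: beta-galactosidase luminescence from glucocorticoid response element reporter as proxy for Hsp90 function; inhibitor potency where signal loss means Hsp90 inhibition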
ATP-dependent molecular chaperone HSP82, sequence (C4YTQ8 whole entry): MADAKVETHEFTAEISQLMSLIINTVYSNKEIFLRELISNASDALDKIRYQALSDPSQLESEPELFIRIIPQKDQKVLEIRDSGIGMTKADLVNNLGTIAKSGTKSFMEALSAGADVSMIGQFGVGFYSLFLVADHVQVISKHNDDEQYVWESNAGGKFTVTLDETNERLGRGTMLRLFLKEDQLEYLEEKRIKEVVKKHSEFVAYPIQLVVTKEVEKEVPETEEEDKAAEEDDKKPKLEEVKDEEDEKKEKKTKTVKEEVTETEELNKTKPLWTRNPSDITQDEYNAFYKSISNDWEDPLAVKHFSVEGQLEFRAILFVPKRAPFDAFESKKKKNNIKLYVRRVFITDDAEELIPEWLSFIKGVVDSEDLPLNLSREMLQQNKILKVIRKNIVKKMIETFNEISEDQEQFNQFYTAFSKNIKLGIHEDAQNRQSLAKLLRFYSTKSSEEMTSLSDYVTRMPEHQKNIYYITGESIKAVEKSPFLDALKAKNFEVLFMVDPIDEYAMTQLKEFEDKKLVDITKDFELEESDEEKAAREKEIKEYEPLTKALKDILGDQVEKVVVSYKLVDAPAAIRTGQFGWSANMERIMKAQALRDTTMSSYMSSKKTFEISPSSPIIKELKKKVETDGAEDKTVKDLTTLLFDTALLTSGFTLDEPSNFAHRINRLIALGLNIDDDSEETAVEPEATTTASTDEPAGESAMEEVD

[4] = target: Dual specificity tyrosine-phosphorylation-regulated kinase 1A (Rattus norvegicus, UniProt Q63470); format: biochemical, Homo sapiens
[5] = Shn3 3'UTR reporter inhibitors, dose response, cell-based, Clone20 osteoblasts, firefly luciferase, cherry-picked (AID 624132); format: functional;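 also: firefly luciferase luminescence from reporter carrying the Shn3 3'UTR in osteoblasts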
Caspase-9 = target: T2, Caspase-9 (Homo sapiens, UniProt P55211); assay: caspase-9 enzyme inhibition, dose response, selectivity assay for caspase-6 inhibitor project, biochemical, fluorescence, plate reader, cherry-picked samples (AID 743293)
T2 sequence (P55211 whole entry): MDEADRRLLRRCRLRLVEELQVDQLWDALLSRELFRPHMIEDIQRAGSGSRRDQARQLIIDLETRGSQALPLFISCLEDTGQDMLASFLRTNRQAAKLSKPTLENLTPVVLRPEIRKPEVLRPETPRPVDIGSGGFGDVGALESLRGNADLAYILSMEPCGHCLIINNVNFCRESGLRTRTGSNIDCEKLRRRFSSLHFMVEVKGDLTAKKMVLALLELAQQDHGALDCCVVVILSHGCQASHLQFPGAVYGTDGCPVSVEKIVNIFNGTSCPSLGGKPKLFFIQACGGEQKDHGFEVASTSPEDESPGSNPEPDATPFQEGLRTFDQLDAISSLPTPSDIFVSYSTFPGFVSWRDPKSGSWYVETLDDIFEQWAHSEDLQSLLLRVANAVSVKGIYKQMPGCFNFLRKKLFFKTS

[6] = target: T3, Calpain-2 catalytic subunit (Sus scrofa, UniProt P43367); assay: pig calpain II inhibitor potency, dose response, biochemical, fluorogenic peptide substrate (AID 1420); format: functional
T3 sequence (P43367 whole entry): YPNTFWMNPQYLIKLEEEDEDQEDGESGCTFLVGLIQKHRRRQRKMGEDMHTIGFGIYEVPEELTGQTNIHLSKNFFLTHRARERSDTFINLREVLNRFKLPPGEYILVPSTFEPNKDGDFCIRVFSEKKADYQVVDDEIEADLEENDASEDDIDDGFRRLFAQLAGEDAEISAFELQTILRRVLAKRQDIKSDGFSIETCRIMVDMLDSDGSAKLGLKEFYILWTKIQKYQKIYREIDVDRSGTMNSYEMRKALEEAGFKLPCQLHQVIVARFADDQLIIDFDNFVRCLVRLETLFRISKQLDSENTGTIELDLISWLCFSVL

BJ = assay: cytotoxicity toward BJ-TERT-LT-ST fibroblasts, dose response, cell-based, RAS-independent, luminescence (AID 1935); format: functional; conditions: Homo sapiens;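 also: BJ fibroblasts immortalized with TERT plus LT and ST oncogenes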
[7] = cytotoxicity toward DRD oncogenic fibroblasts, dose response, cell-based, non-viral oncogenic, luminescence (AID 1934); format: functional; conditions: Homo sapiens
Galanin receptor type 3 = target: T4, Galanin receptor type 3 (Homo sapiens, UniProt O60755); assay: Fluorescence-based cell-based primary high throughput dose response assay to identify antagonists of the Galanin Receptor 3 (GalR3).; format: functional
T4 sequence (O60755 whole entry): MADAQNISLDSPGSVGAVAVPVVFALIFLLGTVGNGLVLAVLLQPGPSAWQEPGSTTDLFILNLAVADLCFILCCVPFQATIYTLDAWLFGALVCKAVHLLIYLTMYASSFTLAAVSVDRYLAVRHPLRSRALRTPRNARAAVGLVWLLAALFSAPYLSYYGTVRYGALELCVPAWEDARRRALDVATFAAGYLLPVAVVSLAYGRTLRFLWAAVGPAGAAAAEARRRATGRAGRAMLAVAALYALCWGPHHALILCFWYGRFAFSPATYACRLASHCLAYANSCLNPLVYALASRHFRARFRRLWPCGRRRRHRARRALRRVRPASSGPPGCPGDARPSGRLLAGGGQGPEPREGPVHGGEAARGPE

Small ubiquitin-related modifier 2, sequence (P61956 whole entry): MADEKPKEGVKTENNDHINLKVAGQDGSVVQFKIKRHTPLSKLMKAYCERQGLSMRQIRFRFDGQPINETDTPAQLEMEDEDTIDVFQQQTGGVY

## COc1ccc(NS(=O)(=O)c2ccc3c(c2)[C@H]2C=CC[C@H]2[C@@H](c2ccc(C(=O)O)cc2)N3)cc1
[1]
  IC50: 4.06 µM (active)
[2]
  AC50: > 20 µM (inactive)

## CCC(=O)NC(c1ccc(OC)cc1)c1cc(Cl)c2cccnc2c1O (stereo not given)
[3]
  EC50: > 160 µM (inactive)

## Cn1nc(-c2ccccn2)nc2c(=O)n(C)c(=O)nc1-2
[4]
  AC50: 0.284 µM (active)
[5]
  AC50: 0.493 µM (active)
Caspase-9
  AC50: 0.317 µM (active)

## CCCCCCCCCCn1c2c(c(=N)c3c1CCC3)CCC2
[6]
  IC50: 6.72 µM (active)
BJ
  EC50: 5.73 µM (inconclusive)
[7]
  EC50: 3.44 µM (inconclusive)
Galanin receptor type 3
  IC50: > 1.11 µM (active)
